The results in this text go back to the supplement of paper PMC10307832.

Experiment in all cases: relative viability (nuclei count vs DMSO), 5 days (fraction); higher = more cells survive
Compound in the experiment “Venetoclax + Pictilisib”: CC1(C)CCC(CN2CCN(c3ccc(C(=O)NS(=O)(=O)c4ccc(NCC5CCOCC5)c([N+](=O)[O-])c4)c(Oc4cnc5[nH]ccc5c4)c3)CC2)=C(c2ccc(Cl)cc2)C1 [Venetoclax] + CS(=O)(=O)N1CCN(Cc2cc3nc(-c4cccc5[nH]ncc45)nc(N4CCOCC4)c3s2)CC1 [Pictilisib] (partner 1 µM)
An outline of the steps:
(§1)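 The day after seeding in 1536-well plates, lung cancer cell lines were treated by pin tool with a single drug, or with a fixed anchor-drug dose together with five library-drug doses (not always all listed) in √10 steps. After 5 days, a combined fix-and-stain solution (final 0.05% Triton X-100, 1% formaldehyde, 1 ug/ml Hoechst) was added. Nuclei counted on 4× images gave relative viability as treated counts over vehicle counts, reported as the median of duplicate plates.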

Compound in the experiment “Selumetinib + Foretinib”: Cn1cnc2c(F)c(Nc3ccc(Br)cc3Cl)c(C(=O)NOCCO)cc21 [Selumetinib] + COc1cc2c(Oc3ccc(NC(=O)C4(C(=O)Nc5ccc(F)cc5)CC4)cc3F)ccnc2cc1OCCCN1CCOCC1 [Foretinib] (partner 0.25 µM)
In a few lines: as §1

Compound in the experiment “Selumetinib + Lapatinib”: Cn1cnc2c(F)c(Nc3ccc(Br)cc3Cl)c(C(=O)NOCCO)cc21 [Selumetinib] + CS(=O)(=O)CCNCc1ccc(-c2ccc3ncnc(Nc4ccc(OCc5cccc(F)c5)c(Cl)c4)c3c2)o1 [Lapatinib] (partner 2 µM)
In a few lines:
as §1

Compound in the experiment “Selumetinib + Vorinostat”: Cn1cnc2c(F)c(Nc3ccc(Br)cc3Cl)c(C(=O)NOCCO)cc21 [Selumetinib] + O=C(CCCCCCC(=O)Nc1ccccc1)NO [Vorinostat] (partner 1 µM)
In a few lines:
as §1

As to UMC-11, the relative viability was 0.817 with Venetoclax + Pictilisib (first compound 0.01 µM); 0.985 with Venetoclax + Pictilisib (first compound 0.03162 µM); 0.747 with Venetoclax + Pictilisib (first compound 0.1 µM); 0.741 with Venetoclax + Pictilisib (first compound 0.3162 µM); 0.72 in the experiment with Venetoclax + Pictilisib (first compound 1 µM); 1.05 with Selumetinib + Foretinib (first compound 0.02 µM). In addition, the relative viability was determined as 1.11 with Selumetinib + Foretinib (first compound 0.06325 µM); 1.05 in the experiment with Selumetinib + Foretinib (first compound 0.2 µM); 1.04 with Selumetinib + Foretinib (first compound 0.6325 µM); 0.954 with Selumetinib + Lapatinib (first compound 0.02 µM); 0.897 with Selumetinib + Lapatinib (first compound 0.06325 µM); 0.972 with Selumetinib + Lapatinib (first compound 0.2 µM). Moreover, the relative viability in the experiment with Selumetinib + Lapatinib (first compound 0.6325 µM) was 1.02; in the experiment with Selumetinib + Vorinostat (first compound 0.02 µM) it was 0.387; in the experiment with Selumetinib + Vorinostat (first compound 0.06325 µM) it was 0.285; with Selumetinib + Vorinostat (first compound 0.2 µM), 0.348; with Selumetinib + Vorinostat (first compound 0.6325 µM), 0.368.
